Assay [1] has as its target kinase panel containing either 386 or 392 distinct kinases. The assay is described as follows: Kinase selectivity score S10 from competition binding panel. Conditions: 10 μM, panel of 386 or 392 distinct kinases. The procedure, abridged:
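S10 is the number of kinases with percent-of-control under 10, divided by all distinct wild-type kinases tested, from a single 10 μM concentration. Binding measured by qPCR of kinase recovered from ligand-coated beads after 1 h equilibrium at room temperature; kinases were phage fusions or DNA-tagged HEK-293 products.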

A further assay addresses T1, PDGFRβ (Homo sapiens, UniProt P09619).
T1 construct: made in house
Description: Competition binding assay, PDGFRβ Kd. As to conditions: competition binding. The procedure, abridged: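 Kinases as T7-phage fusions or HEK-293-expressed DNA-tagged constructs competed against immobilized biotinylated ligand on streptavidin beads, 1 h at room temperature in binding buffer. Bound kinase eluted and quantified by qPCR; Kd from eleven-point threefold dilution series.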

In the next assay the target is CSF1R (Homo sapiens, UniProt P07333). The assay is described as follows: HEK293 CSF1R phosphorylation MSD assay. It is filed as cell-based. Set-up: expressed in transfected cells; host or cells: HEK293. Conditions: HEK293 cells, M-CSF stimulated CSF1R phosphorylation, MSD; read-out: HEK293 pCSF1R M-CSF MSD:IC50. The procedure, abridged:
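Ligand-induced CSF1R autophosphorylation was measured by MSD sandwich assay: CSF1R-FKBP from lysates captured via FK506, anti-phosphotyrosine readout. Cells were exposed to compound for 2 h (9-point, half-log, 0.5% DMSO) before 5 min 50 ng/mL M-CSF. Reported IC50 is the mean of duplicate-plate IC50s relative to DMSO control.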

The test system of a further assay is M-NFS-60 cells. The assay is described as follows: M-NFS-60 cell proliferation assay (Alamar Blue). It is filed as cell-based, mouse. As to conditions: M-NFS-60 cell proliferation, read-out: CSF1R M-NFS-60 CTB:IC50. In outline: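 Alamar Blue reduction (3 h; 560/590 nm) measured viability after 72 h, 37 °C treatment with nine half-log compound concentrations at 0.5% DMSO. Cells: M-CSF-dependent (20 ng/mL) murine M-NFS-60 in RPMI plus 10% FBS. IC50s, averaged from duplicates, reflect half-maximal inhibition of proliferation relative to control.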
For orientation: Resazurin is reduced to fluorescent resorufin, in cell work by metabolically active cells.

Like-named read-outs stand apart in the source and are kept apart here. A value given as a limit tells only on which side of the number the result lay.

The results in this text go back to patent publication US9938261B2, “Heterocyclic compounds and methods of use thereof” (AMBIT BIOSCIENCES CORPORATION, priority 2011, dated 2018).

T1 sequence (P09619 33-1106): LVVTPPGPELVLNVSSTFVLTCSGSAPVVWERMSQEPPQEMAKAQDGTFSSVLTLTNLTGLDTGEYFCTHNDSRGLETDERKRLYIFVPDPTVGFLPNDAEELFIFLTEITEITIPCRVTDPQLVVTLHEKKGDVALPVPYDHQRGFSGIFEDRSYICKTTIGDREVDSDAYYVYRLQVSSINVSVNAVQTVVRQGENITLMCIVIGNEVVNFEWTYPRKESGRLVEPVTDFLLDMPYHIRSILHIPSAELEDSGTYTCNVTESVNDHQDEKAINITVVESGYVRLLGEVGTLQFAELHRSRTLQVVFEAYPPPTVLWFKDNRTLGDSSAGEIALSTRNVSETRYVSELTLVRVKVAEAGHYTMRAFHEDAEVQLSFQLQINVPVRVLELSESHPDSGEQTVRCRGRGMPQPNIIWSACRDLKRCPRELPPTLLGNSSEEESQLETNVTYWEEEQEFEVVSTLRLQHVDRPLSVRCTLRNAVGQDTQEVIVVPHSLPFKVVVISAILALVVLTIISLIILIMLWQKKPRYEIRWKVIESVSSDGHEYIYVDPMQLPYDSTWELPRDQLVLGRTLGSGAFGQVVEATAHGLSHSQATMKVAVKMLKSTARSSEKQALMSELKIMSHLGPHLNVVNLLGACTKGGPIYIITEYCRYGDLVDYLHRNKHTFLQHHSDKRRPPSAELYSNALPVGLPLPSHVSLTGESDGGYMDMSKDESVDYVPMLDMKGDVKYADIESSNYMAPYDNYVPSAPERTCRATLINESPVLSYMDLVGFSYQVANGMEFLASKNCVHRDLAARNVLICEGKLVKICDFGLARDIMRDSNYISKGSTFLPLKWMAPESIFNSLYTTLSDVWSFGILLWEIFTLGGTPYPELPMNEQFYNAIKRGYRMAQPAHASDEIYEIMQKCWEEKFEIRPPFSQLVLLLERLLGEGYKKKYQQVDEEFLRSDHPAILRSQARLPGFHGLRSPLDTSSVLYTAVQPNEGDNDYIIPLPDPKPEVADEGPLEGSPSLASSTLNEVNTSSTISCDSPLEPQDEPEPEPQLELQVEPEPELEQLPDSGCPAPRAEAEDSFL
CSF1R, sequence (P07333 20-972): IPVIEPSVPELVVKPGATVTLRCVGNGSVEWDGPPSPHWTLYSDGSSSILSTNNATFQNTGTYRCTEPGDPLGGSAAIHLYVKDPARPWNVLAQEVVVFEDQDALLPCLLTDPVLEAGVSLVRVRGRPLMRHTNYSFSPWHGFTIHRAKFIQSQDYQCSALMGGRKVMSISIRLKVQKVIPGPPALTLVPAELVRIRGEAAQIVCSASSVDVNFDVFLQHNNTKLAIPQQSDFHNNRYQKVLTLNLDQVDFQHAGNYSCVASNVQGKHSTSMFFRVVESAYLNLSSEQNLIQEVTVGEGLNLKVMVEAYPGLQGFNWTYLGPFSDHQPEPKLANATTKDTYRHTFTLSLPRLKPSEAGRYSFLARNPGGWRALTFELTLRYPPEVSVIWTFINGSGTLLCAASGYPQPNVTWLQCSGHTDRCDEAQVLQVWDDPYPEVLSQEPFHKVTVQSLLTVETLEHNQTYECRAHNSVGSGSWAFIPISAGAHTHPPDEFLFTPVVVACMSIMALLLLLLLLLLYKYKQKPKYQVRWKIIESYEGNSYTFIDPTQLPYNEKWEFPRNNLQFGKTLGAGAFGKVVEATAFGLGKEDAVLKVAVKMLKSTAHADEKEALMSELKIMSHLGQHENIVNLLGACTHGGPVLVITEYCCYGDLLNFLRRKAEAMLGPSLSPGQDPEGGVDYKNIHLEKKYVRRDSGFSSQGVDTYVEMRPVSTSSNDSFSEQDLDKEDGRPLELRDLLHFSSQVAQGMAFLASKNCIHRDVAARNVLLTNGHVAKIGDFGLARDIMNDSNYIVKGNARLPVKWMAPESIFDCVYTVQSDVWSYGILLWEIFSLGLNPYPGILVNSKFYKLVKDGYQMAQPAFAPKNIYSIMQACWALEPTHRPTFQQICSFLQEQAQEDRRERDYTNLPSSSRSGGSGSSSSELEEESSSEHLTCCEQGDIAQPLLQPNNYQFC

For the compound `COc1ccc2ncc(Cc3ccc4nc(N[C@@H]5CCCC[C@H]5O)sc4c3)n2n1` [Example 150, (1R,2R)-2-((6-((6-methoxyimidazo[1,2-b]pyridazin-3-yl)methyl)benzo[d]thiazol-2-yl)amino)cyclohexanol], the “Kinase specificity S(10)” value in assay [1] is listed as “B (0.01<B≤0.02)”. At PDGFRβ, the Kd lay in the range of 50 to 500 nM. Moreover, the concentration for half-maximal inhibition (IC50) was 50 to 200 nM on CSF1R and 50 to 400 nM with M-NFS-60 cells (Mus musculus).

Take `COc1ccc2c(c1)ncn2Cc1ccc2nc(N[C@@H]3CCCC[C@H]3O)oc2c1` [Example 151, (1R,2R)-2-((6-((5-methoxy-1H-benzo[d]imidazol-1-yl)methyl)benzo[d]oxazol-2-yl)amino)cyclohexanol]: in assay [1], the “Kinase specificity S(10)” value is on record as “B (0.01<B≤0.02)”. On PDGFRβ, this compound showed a Kd of at most 50 nM. Moreover, the 50% inhibitory concentration (IC50) at CSF1R was at most 50 nM; in the assay on M-NFS-60 cells (Mus musculus) it was 50 to 400 nM.

As for `COc1ccc2ncn(Cc3ccc4nc(N[C@@H]5CCCC[C@H]5O)oc4c3)c2c1` [Example 152, (1R,2R)-2-((6-((6-methoxy-1H-benzo[d]imidazol-1-yl)methyl)benzo[d]oxazol-2-yl)amino)cyclohexanol], the “Kinase specificity S(10)” value in assay [1] was “B (0.01<B≤0.02)”. The Kd on PDGFRβ is 50 to 500 nM. Also, the IC50 on CSF1R is at most 50 nM; in the assay with M-NFS-60 cells (Mus musculus) it was 50 to 400 nM.

For the compound `COCCOc1ccn2c(Cc3ccc4nc(N[C@@H]5CCCC[C@H]5O)sc4c3)cnc2c1` [Example 153, (1R,2R)-2-((6-((7-(2-methoxyethoxy)imidazo[1,2-a]pyridin-3-yl)methyl)benzo[d]thiazol-2-yl)amino)cyclohexanol], the “Kinase specificity S(10)” value in assay [1] is “A (A≤0.01)”. At PDGFRβ, this compound displayed a Kd of 50 to 500 nM. Also, the concentration for half-maximal inhibition (IC50) at CSF1R was at most 50 nM; with M-NFS-60 cells (Mus musculus), 50 to 400 nM.

As to `O[C@@H]1CCCC[C@H]1Nc1nc2cc(F)c(Cn3cnc4cccnc43)cc2s1` [Example 154, (1R,2R)-2-((6-((3H-imidazo[4,5-b]pyridin-3-yl)methyl)-5-fluorobenzo[d]thiazol-2-yl)amino)cyclohexanol], the “Kinase specificity S(10)” value in assay [1] is “A (A≤0.01)”. The same compound showed a Kd at PDGFRβ of 500 to 2000 nM. For the same compound, the IC50 on CSF1R is 50 to 200 nM; in the assay on M-NFS-60 cells (Mus musculus) it was 50 to 400 nM.

Regarding `O[C@@H]1CCCC[C@H]1Nc1nc2ccc(Cc3cnc4ccc(N5CCOCC5)nn34)cc2s1` [Example 155, (1R,2R)-2-((6-((6-morpholinoimidazo[1,2-b]pyridazin-3-yl)methyl)benzo[d]thiazol-2-yl)amino)cyclohexanol], the “Kinase specificity S(10)” value in assay [1] is given as “B (0.01<B≤0.02)”. Moreover, the Kd at PDGFRβ is 50 to 500 nM. For the same compound, the IC50 at CSF1R was at most 50 nM; in the assay on M-NFS-60 cells (Mus musculus), 50 to 400 nM.

With `O[C@@H]1CCCC[C@H]1Nc1nc2c(Cl)cc(Cc3cnc4ccc(N5CCOCC5)nn34)cc2s1` [Example 156, (1R,2R)-2-((4-chloro-6-((6-morpholinoimidazo[1,2-b]pyridazin-3-yl)methyl)benzo[d]thiazol-2-yl)amino)cyclohexanol], in assay [1], the “Kinase specificity S(10)” value is “A (A≤0.01)”. For the same compound, the dissociation constant Kd at PDGFRβ lay in the range of 500 to 2000 nM. Moreover, the half-inhibitory concentration (IC50) is 200 to 500 nM on CSF1R and 400 to 1500 nM in the assay with M-NFS-60 cells (Mus musculus).

Take `O[C@@H]1CCCC[C@H]1Nc1nc2ccc(Cc3cnc4sccn34)cc2s1` [Example 157, (1R,2R)-2-((6-(imidazo[2,1-b]thiazol-5-ylmethyl)benzo[d]thiazol-2-yl)amino)cyclohexanol]: the “Kinase specificity S(10)” value in assay [1] is reported as “A (A≤0.01)”. The same compound gave a Kd on PDGFRβ of 500 to 2000 nM. For the same compound, the 50% inhibitory concentration (IC50) at CSF1R is above 500 nM; in the assay with M-NFS-60 cells (Mus musculus) it was 400 to 1500 nM.

`O[C@@H]1CCCC[C@H]1Nc1nc2ccc(Cc3cnc4ccc(Cl)nn34)cc2s1` [Example 158, (1R,2R)-2-((6-((6-chloroimidazo[1,2-b]pyridazin-3-yl)methyl)benzo[d]thiazol-2-yl)amino)cyclohexanol]: in assay [1], the “Kinase specificity S(10)” value is recorded as “B (0.01<B≤0.02)”. On PDGFRβ, the Kd is at most 50 nM. The IC50 at CSF1R and in the assay on M-NFS-60 cells (Mus musculus) was at most 50 nM throughout.

In the case of `O[C@@H]1CCCC[C@H]1Nc1nc2ccc(Cc3cnc4ccc(-n5cccn5)cn34)cc2s1` [Example 159, (1R,2R)-2-((6-((6-(1H-pyrazol-1-yl)imidazo[1,2-a]pyridin-3-yl)methyl)benzo[d]thiazol-2-yl)amino)cyclohexanol], the “Kinase specificity S(10)” value in assay [1] was “A (A≤0.01)”. In addition, the equilibrium dissociation constant (Kd) at PDGFRβ is 500 to 2000 nM. Moreover, the half-inhibitory concentration (IC50) on CSF1R lay in the range of 200 to 500 nM; with M-NFS-60 cells (Mus musculus), 400 to 1500 nM.

For `O[C@@H]1CCCC[C@H]1Nc1nc2ccc(Cn3cnc4cc(-n5cccn5)ccc43)cc2s1` [Example 160, (1R,2R)-2-((6-((5-(1H-pyrazol-1-yl)-1H-benzo[d]imidazol-1-yl)methyl)benzo[d]thiazol-2-yl)amino)cyclohexanol], the “Kinase specificity S(10)” value in assay [1] is on record as “A (A≤0.01)”. For the same compound, the Kd on PDGFRβ is at most 50 nM. Further, the half-maximal inhibitory concentration (IC50) on CSF1R and with M-NFS-60 cells (Mus musculus) was at most 50 nM in each case.

On to `O[C@@H]1CCCC[C@H]1Nc1nc2ccc(Cn3cnc4cc(-n5cncn5)ccc43)cc2s1` [Example 161, (1R,2R)-2-((6-((5-(1H-1,2,4-triazol-1-yl)-1H-benzo[d]imidazol-1-yl)methyl)benzo[d]thiazol-2-yl)amino)cyclohexanol], for which the “Kinase specificity S(10)” value in assay [1] is “A (A≤0.01)”. The Kd on PDGFRβ lay within 50 to 500 nM. In addition, the figures for the half-maximal inhibitory concentration (IC50) on CSF1R and in the assay with M-NFS-60 cells (Mus musculus) were at most 50 nM and 50 to 400 nM, respectively.

In the case of `O[C@H]1CCCC[C@H]1Nc1nc2ccc(Cn3cnc4cc(F)cnc43)cc2s1` [Example 162, (1S,2R)-2-((6-((6-fluoro-3H-imidazo[4,5-b]pyridin-3-yl)methyl)benzo[d]thiazol-2-yl)amino)cyclohexanol], the “Kinase specificity S(10)” value in assay [1] is listed as “A (A≤0.01)”. For the same compound, the Kd at PDGFRβ lay in the range of 50 to 500 nM. Also, the figures for the IC50 on CSF1R and in the assay with M-NFS-60 cells were 50 to 200 nM and 50 to 400 nM, respectively.

On to `O[C@H]1CC[C@H](Nc2nc3ccc(Cn4cnc5cc(F)cnc54)cc3s2)CC1` [Example 163, trans-4-((6-((6-fluoro-3H-imidazo[4,5-b]pyridin-3-yl)methyl)benzo[d]thiazol-2-yl)amino)cyclohexanol], for which the “Kinase specificity S(10)” value in assay [1] was “A (A≤0.01)”. The dissociation constant Kd at PDGFRβ was 50 to 500 nM. Moreover, the half-inhibitory concentration (IC50) at CSF1R is above 500 nM; in the assay on M-NFS-60 cells (Mus musculus), above 1500 nM.

`O[C@@H]1CCCC[C@H]1Nc1nc2ccc(Cn3cnc4cccnc43)c(F)c2s1` [Example 164, (1R,2R)-2-((6-((3H-imidazo[4,5-b]pyridin-3-yl)methyl)-7-fluorobenzo[d]thiazol-2-yl)amino)cyclohexanol]: in assay [1], the “Kinase specificity S(10)” value is “A (A≤0.01)”. Also, the dissociation constant Kd on PDGFRβ lay in the range of 500 to 2000 nM. The IC50 on CSF1R is above 500 nM; in the assay on M-NFS-60 cells (Mus musculus), 400 to 1500 nM.

For the compound `COc1ccc2ncc(Cc3ccc4nc(N[C@@H]5CCCC[C@H]5O)sc4c3)n2c1` [Example 165, (1R,2R)-2-((6-((6-methoxyimidazo[1,2-a]pyridin-3-yl)methyl)benzo[d]thiazol-2-yl)amino)cyclohexanol], the “Kinase specificity S(10)” value in assay [1] is given as “A (A≤0.01)”. This compound yielded a Kd on PDGFRβ of 500 to 2000 nM. For the same compound, the IC50 on CSF1R was above 500 nM; in the assay with M-NFS-60 cells (Mus musculus), 400 to 1500 nM.

`O[C@@H]1CCCC[C@H]1Nc1nc2c(Br)cc(Cn3cnc4cccnc43)cc2s1` [Example 166, (1R,2R)-2-((6-((3H-imidazo[4,5-b]pyridin-3-yl)methyl)-4-bromobenzo[d]thiazol-2-yl)amino)cyclohexanol]: the “Kinase specificity S(10)” value in assay [1] was “A (A≤0.01)”. Besides, the Kd at PDGFRβ was above 2000 nM. In addition, the IC50 was above 500 nM on CSF1R and 400 to 1500 nM in the assay with M-NFS-60 cells (Mus musculus).

For the compound `O[C@@H]1CCCC[C@H]1Nc1nc2ccc(Cc3cnc4cc(-n5cccn5)ccn34)cc2s1` [Example 167, (1R,2R)-2-((6-((7-(1H-pyrazol-1-yl)imidazo[1,2-a]pyridin-3-yl)methyl)benzo[d]thiazol-2-yl)amino)cyclohexanol], the “Kinase specificity S(10)” value in assay [1] is given as “A (A≤0.01)”. For the same compound, the Kd on PDGFRβ was 50 to 500 nM. Also, the 50% inhibitory concentration (IC50) at CSF1R and with M-NFS-60 cells (Mus musculus) was at most 50 nM each time.

For `O[C@@H]1CCCC[C@H]1Nc1nc2c(F)cc(Cn3cnc4cccnc43)c(F)c2s1` [Example 168, (1R,2R)-2-((6-((3H-imidazo[4,5-b]pyridin-3-yl)methyl)-4,7-difluorobenzo[d]thiazol-2-yl)amino)cyclohexanol], the “Kinase specificity S(10)” value in assay [1] is on record as “A (A≤0.01)”. In addition, on PDGFRβ, the dissociation constant (Kd) was above 2000 nM. The figures for the half-maximal inhibitory concentration (IC50) on CSF1R and in the assay with M-NFS-60 cells (Mus musculus) were above 500 nM and 400 to 1500 nM, respectively.

`O[C@@H]1CCCC[C@H]1Nc1nc2ccc(Cc3cnc4cc(-n5cncn5)ccn34)cc2s1` [Example 169, (1R,2R)-2-((6-((7-(1H-1,2,4-triazol-1-yl)imidazo[1,2-a]pyridin-3-yl)methyl)benzo[d]thiazol-2-yl)amino)cyclohexanol]: the “Kinase specificity S(10)” value in assay [1] was “A (A≤0.01)”. On PDGFRβ, this compound registered a dissociation constant (Kd) of 50 to 500 nM. The results for the IC50 at CSF1R and with M-NFS-60 cells (Mus musculus) were 50 to 200 nM and 50 to 400 nM, respectively.

The Kd is the equilibrium constant for the complex coming apart. Low readings indicate tighter binding, high ones weaker binding. As usually defined, the IC50 is the midpoint of a concentration-inhibition curve.
